Assays:
mPTP [1] = experiment: mPTP activity (Ca2+ retention) assay in isolated rat liver mitochondria; assay type: biochemical; conditions: isolated rat liver mitochondria; Fluo5N fluorescence at 10 min after CaCl2 (75 μM) bolus; DMSO 0%, 5 μM cyclosporin A 100% inhibition
Description: Pharmacological inhibition or modulation of the mPTP can be measured in well characterised ‘Ca^2+ retention’ assays performed in isolated mitochondria. In vitro, isolated mitochondria rapidly sequester exogenous Ca^2+ until the intramitochondrial Ca^2+ concentration reaches the threshold for mPTP activation. Once the pore is activated, mitochondrial integrity is compromised and the stored Ca^2+ is released. The distribution of Ca^2+ between extra- and intra-mitochondrial compartments can be measured in real time with the use of membrane-impermeant Ca^2+ sensitive fluorescent dyes. Depending on the configuration of the assay, inhibition or modulation of the mPTP either delays the opening of the pore or increases the concentration of Ca^2+ required to induce mPTP opening.
MPTP activity was measured in mitochondria freshly isolated from female Sprague Dawley (250 to 300 gram) rat livers using the following method. Cervical dislocation was performed on the rat. The liver was then perfused in-situ with ~40 ml cold Dulbecco's Phosphate Buffered Saline (DPBS) prior to dissection and transferred into 30 ml Isolation Buffer (250 mM Sucrose, 10 mM KCl, 1 mM EGTA, 1 mM EDTA, 25 mM HEPES, adjusted to pH 7.5 with 1M NaOH). Each lobe of the liver was then removed from the buffer, minced using tweezers and a scalpel into ~5 mm pieces then transferred into a 50 ml Potterton dounce homogenization tube on ice containing 30 ml ice-cold centrifugation buffer (300 mM Trehalose, 25 mM HEPES, 1 mM EGTA, 1 mM EDTA, 10 mM KCl, adjusted to pH 7.5 with 1M NaOH and supplemented with 0.1% bovine serum albumin (BSA) and complete protease inhibitor cocktail (one tablet of inhibitor per 50 mls of buffer). Homogenisation was carried out using a Teflon® pestle at 1800 rpm. The slurry was centrifuged at 800 g for 10 min at 4° C., then the supernatant centrifuged at 10,000 g for 10 min. The pellet was washed once with FLIPR assay buffer (75 mM Mannitol, 25 mM Sucrose, 5 mM Potassium Phosphate Monobasic, 20 mM Tris base, 100 mM KCl, 0.1% BSA adjusted to pH 7.4 with 5M HCl) centrifuged again, then resuspended in FLIPR assay buffer to a concentration of 8.8 mg/ml protein.
Tested compounds (10 mM stock in DMSO) were serially diluted in DMSO in half log steps to generate 10 test concentrations (final concentrations in assay 30 μM to 1 nM). An intermediate dilution of 5 μl DMSO samples into 247 μl FLIPR assay buffer was carried out prior to transfer of 5 μl into duplicate wells of a 384 well polypropylene assay plate. Control wells were 0.5% (v/v) DMSO and 5 μM cyclosporin A.
A stock mitochondria/Fluo5N assay solution was prepared in 5.6 ml FLIPR assay buffer (at RT) supplemented with succinate disodium salt (10 mM), rotenone (1 μM), Fluo5N pentapotassium salt (2 μM) and 1 ml mitochondria suspension, then transferred (15 μl) into the assay plate containing test compounds and incubated for 10 min at RT. Assay plates were processed for fluorescence detection on either a FLIPR Tetra (Molecular Devices) or CLARIOstar (BMG) plate reader. For kinetic fluorescence detection on the FLIPR, dye fluorescence was measured every 3 sec for a total of 10 min. After 12 sec, a 2.5 μl bolus of CaCl2 (75 μM) was added from a source plate containing 675 μM CaCl2 in FLIPR assay buffer. Alternatively, the 2.5 μl addition of CaCl2 was performed using a Viaflow 384, plates were incubated at RT for 10 min, and dye fluorescence measured after 10 min on the CLARIOstar plate reader. pIC50 values for tested compounds were calculated using the fluorescence value collected at the 10 min timepoint on either plate reader, with % inhibition calculated using the DMSO control and cyclosporin A values as 0 and 100% respectively.

mPTP [2] = experiment: mPTP activity (Ca2+ retention) assay in isolated rat brain mitochondria; assay type: biochemical; conditions: for mPTP Rat brain pIC50: isolated rat brain mitochondria, Fluo5N fluorescence at 10 min after Ca2+ (75 μM) bolus
Protocol: MPTP activity was measured in brain mitochondria freshly isolated from female Sprague Dawley (250 to 300 gram) rats. Anaesthetised rats were perfused in-situ with ~40 ml cold Dulbecco's Phosphate Buffered Saline (DPBS), then brains dissected and transferred into 30 ml Isolation Buffer (225 mM mannitol, 75 mM sucrose, 1 mM EGTA, adjusted to pH 7.4 with 1M NaOH). The brain was minced using tweezers and a scalpel into ~5 mm pieces then transferred into a 50 ml Potterton Dounce homogenization tube on ice containing 10 ml ice-cold isolation buffer (as above with addition of Complete Protease inhibitor; 1 tablet per 50 ml buffer). Homogenisation was carried out using a Teflon® pestle at 1800 rpm. The slurry was centrifuged at 2000 g for 10 min at 4° C., then the supernatant centrifuged at 12,000 g for 9 min. The pellet was resuspended with a dounce homogeniser in isolation buffer as above but with the addition of 0.02% digitonin, centrifuged at 12,000 g for 11 min and finally resuspended in 5 ml modified isolation buffer (as above but with EGTA reduced to 0.1 mM).
Test compounds were prepared in 384 well polypropylene assay plates as described above for the liver mitochondria assay. A stock mitochondria/Fluo5N assay solution was prepared in 5.6 ml assay buffer (120 mM mannitol, 40 mM MOPS, 5 mM KH2PO4, 60 mM KCl, 10 mM pyruvate, 2 mM malate, 2 mM MgCl2, 20 μM ADP, 1.26 μM oligomycin A, adjusted to pH 7.4) supplemented with Fluo5N pentapotassium salt (2 μM) and 1 ml mitochondria suspension, then transferred (15 μl) into the assay plate containing test compounds and incubated for 10 min at RT. Assay plates were then transferred to a FLIPR Tetra plate reader (Molecular Devices). Dye fluorescence was then measured every 3 sec for a total of 10 min.

CCC1CN(C(=O)c2cncc(=O)[nH]2)CC1c1ccccc1 (single isomer, unassigned) [Example 15c, 6-(3-ethyl-4-phenylpyrrolidine-1-carbonyl)pyrazin-2(1H)-one]
mPTP Rat liver pIC50* (mPTP [1]): 5.24 | mPTP Rat brain pIC50 (mPTP [2]): 5.93

O=C(c1cncc(=O)[nH]1)N1CC(c2cccc(Cl)c2)C2(CCC2)C1 (single isomer, unassigned) [Example 31a, 6-(8-(3-chlorophenyl)-6-azaspiro[3.4]octane-6-carbonyl)pyrazin-2(1H)-one]
mPTP Rat liver pIC50* (mPTP [1]): 6.17 | mPTP Rat brain pIC50 (mPTP [2]): 7.22

O=C(c1cc(O)no1)N1CC(c2ccc(F)cc2)C2(CCC2)C1 (single isomer, unassigned) [Example 36a, (8-(4-fluorophenyl)-6-azaspiro[3.4]octan-6-yl)(3-hydroxyisoxazol-5-yl)methanone]
mPTP Rat liver pIC50* (mPTP [1]): 6.65 | activity in the rat brain mitochondria assay (ranking in words) (mPTP [2]; among tested Example compounds): highest activity | mPTP Rat brain pIC50 (mPTP [2]): 7.53

O=C(c1cncc(=O)[nH]1)N1CC(c2cccc(F)c2F)C2(CCC2)C1 (single isomer, unassigned) [Example 43a, 6-(8-(2,3-difluorophenyl)-6-azaspiro[3.4]octane-6-carbonyl)pyrazin-2(1H)-one]
mPTP Rat liver pIC50* (mPTP [1]): 6.56 | mPTP Rat brain pIC50 (mPTP [2]): 7.43

O=C(c1noc(=O)[nH]1)N1CC(c2ccccc2)C2(CCC2)C1 (single isomer, unassigned) [Example 34b, 3-(8-phenyl-6-azaspiro[3.4]octane-6-carbonyl)-1,2,4-oxadiazol-5(4H)-one]
mPTP Rat liver pIC50* (mPTP [1]): <4.52 | mPTP Rat brain pIC50 (mPTP [2]): <4.52

O=C(c1cnn[nH]1)N1CC(c2ccccc2)C2(CCC2)C1 (single isomer, unassigned) [Example 14a, 8-Phenyl-6-(3H-1,2,3-triazole-4-carbonyl)-6-azaspiro[3.4]octane]
mPTP Rat liver pIC50* (mPTP [1]): 5.23 | mPTP Rat brain pIC50 (mPTP [2]): 5.21

O=C(c1cncc(=O)[nH]1)N1CC(c2cccc(Cl)c2F)C2(CCC2)C1 (single isomer, unassigned) [Example 33a, 6-(8-(3-chloro-2-fluorophenyl)-6-azaspiro[3.4]octane-6-carbonyl)pyrazin-2(1H)-one]
mPTP Rat liver pIC50* (mPTP [1]): 5.77 | mPTP Rat brain pIC50 (mPTP [2]): 7.32

O=C(c1cc(O)no1)N1CC(c2ccc(F)c(F)c2)C2(CCC2)C1 (single isomer, unassigned) [Example 46a, (8-(3,4-difluorophenyl)-6-azaspiro[3.4]octan-6-yl)(3-hydroxyisoxazol-5-yl)methanone]
mPTP Rat liver pIC50* (mPTP [1]): 6.28 | mPTP Rat brain pIC50 (mPTP [2]): 7.44

O=C(c1cncc(=O)[nH]1)N1CC(c2ccccc2)C2(CCCC2)C1 (single isomer, unassigned) [Example 17b, 6-[4-phenyl-2-azaspiro[4.4]nonane-2-carbonyl]-1H-pyrazin-2-one]
mPTP Rat liver pIC50* (mPTP [1]): <4.52 | mPTP Rat brain pIC50 (mPTP [2]): <4.52

O=C(c1cccc(=O)[nH]1)N1CC(c2ccccc2)C2(CCC2)C1 (single isomer, unassigned) [Example 26a, 6-(8-phenyl-6-azaspiro[3.4]octane-6-carbonyl)pyridin-2(1H)-one]
mPTP Rat liver pIC50* (mPTP [1]): 4.88 | mPTP Rat brain pIC50 (mPTP [2]): 4.96

O=C(c1cncc(O)c1)N1CC(c2ccccc2)C2(CCC2)C1 (centres unmarked) [Example 1a, (5-hydroxypyridin-3-yl)(8-phenyl-6-azaspiro[3.4]octan-6-yl)methanone]
mPTP Rat liver pIC50* (mPTP [1]): 5.68 | mPTP Rat brain pIC50 (mPTP [2]): 6.73

O=C(c1cc(O)no1)N1CC(c2cccc(F)c2F)C2(CCC2)C1 (single isomer, unassigned) [Example 39b, (8-(2,3-difluorophenyl)-6-azaspiro[3.4]octan-6-yl)(3-hydroxyisoxazol-5-yl)methanone]
mPTP Rat liver pIC50* (mPTP [1]): <4.52 | mPTP Rat brain pIC50 (mPTP [2]): <4.52

O=C(c1nccc(=O)[nH]1)N1CC(c2ccccc2)C2(CC(F)C2)C1 (single isomer, unassigned) [Example 25c, 2-(2-fluoro-8-phenyl-6-azaspiro[3.4]octane-6-carbonyl)pyrimidin-4(3H)-one]
mPTP Rat liver pIC50* (mPTP [1]): 5.68 | mPTP Rat brain pIC50 (mPTP [2]): 6.54

O=C(c1cncc(=O)[nH]1)N1CC(c2ccc(Br)cc2)C2(CCC2)C1 (single isomer, unassigned) [Example 29b, 6-(8-(4-bromophenyl)-6-azaspiro[3.4]octane-6-carbonyl)pyrazin-2(1H)-one]
mPTP Rat liver pIC50* (mPTP [1]): <4.52 | mPTP Rat brain pIC50 (mPTP [2]): <4.52

COc1ccc(C2CN(C(=O)c3cncc(=O)[nH]3)CC23CCC3)cc1 (single isomer, unassigned) [Example 28a, 6-(8-(4-methoxyphenyl)-6-azaspiro[3.4]octane-6-carbonyl)pyrazin-2(1H)-one]
mPTP Rat liver pIC50* (mPTP [1]): 5.17 | mPTP Rat brain pIC50 (mPTP [2]): 5.69

COc1ccc(C2CN(C(=O)c3cncc(=O)[nH]3)CC23CCC3)cc1 (single isomer, unassigned) [Example 28b, 6-(8-(4-methoxyphenyl)-6-azaspiro[3.4]octane-6-carbonyl)pyrazin-2(1H)-one]
mPTP Rat liver pIC50* (mPTP [1]): <4.52 | mPTP Rat brain pIC50 (mPTP [2]): <4.52

O=C(c1ccnc(=O)[nH]1)N1CC(c2ccccc2)C2(CCC2)C1 (single isomer, unassigned) [Example 27a, 6-(8-phenyl-6-azaspiro[3.4]octane-6-carbonyl)pyrimidin-2(1H)-one]
mPTP Rat liver pIC50* (mPTP [1]): 6.11 | mPTP Rat brain pIC50 (mPTP [2]): 6.34

CC1(C)CN(C(=O)c2cncc(O)c2)CC1c1ccccc1 (centres unmarked) [Example 4, (3,3-dimethyl-4-phenylpyrrolidin-1-yl)(5-hydroxypyridin-3-yl)methanone]
mPTP Rat liver pIC50* (mPTP [1]): 5.47 | mPTP Rat brain pIC50 (mPTP [2]): 6.22

O=C(c1cncc(O)n1)N1CC(c2ccccc2)C2(CCC2)C1 (single isomer, unassigned) [Example 6a, (6-hydroxypyrazin-2-yl)(8-phenyl-6-azaspiro[3.4]octan-6-yl)methanone]
mPTP Rat liver pIC50* (mPTP [1]): 6.39 | mPTP Rat brain pIC50 (mPTP [2]): 7.34

O=C(c1cc(O)no1)N1CC(c2ccc(F)cc2)C2(CCC2)C1 (single isomer, unassigned) [Example 36b, (8-(4-fluorophenyl)-6-azaspiro[3.4]octan-6-yl)(3-hydroxyisoxazol-5-yl)methanone]
mPTP Rat liver pIC50* (mPTP [1]): <4.52 | mPTP Rat brain pIC50 (mPTP [2]): <4.52
